A short description of data set [1]: Cytotoxicity against human MRC5 cells assessed as inhibition of cell growth measured after 96 hrs by MTT assay. It counts as toxicity, cell-based. In general terms: Formazan colour is commonly taken as a measure of viable cells.
The subject of data set [2] is A549. As to the kind of experiment: cells. The settings on record: Homo sapiens, A549, 96 h.
Description: Cytotoxicity against human A549 cells assessed as inhibition of cell growth measured after 96 hrs by MTT assay
Data set [3] can be described thus: Selectivity index, ratio of IC50 for human MRC5 cells to IC50 for human A549 cells. It counts as toxicity. The settings on record: MRC5 cells and A549 cells, read-out: Ratio IC50.
Data set [4] relates to A549. As to the kind of experiment: Potency index, ratio of celastrol IC50 to test compound IC50 for cytotoxicity against human A549 cells by MTT assay. It counts as functional.
For data set [5], the system named is A549. The data set is described as follows: Induction of apoptosis in human A549 cells assessed as viable cells at 0.5 uM incubated for 48 hrs by Annexin V-FITC/propidium iodide staining based flow cytometry (reference value: 95.7%). Type of data set: functional. The following applies: read-out: Activity.
Data set [6] has as its system A549. As to the kind of experiment: Induction of apoptosis in human A549 cells assessed as late apoptotic cells at 0.5 uM incubated for 48 hrs by Annexin V-FITC/propidium iodide staining based flow cytometry (reference value: 0.82%). It counts as functional. (Flow cytometry measures light scatter and fluorescence of single cells or particles in a stream.)
Data set [7] concerns A549. The data set is described as follows: Cytotoxicity against human A549 cells assessed as inhibition of cell proliferation measured after 24 to 72 hrs by MTT assay. Type of data set: functional, cell-based. The settings on record: dose 0.125-2 µM, time 24-72 hrs, DDE = dose-dependent effect.
Data set [8] deals with A549. The data set is described as follows: Induction of apoptosis in human A549 cells assessed as early apoptotic cells at 0.5 uM incubated for 48 hrs by Annexin V-FITC/propidium iodide staining based flow cytometry (reference value: 0.11%). Type of data set: functional.
The test system of data set [9] is A549. As to the kind of experiment: Induction of apoptosis in human A549 cells assessed as necrotic cells at 0.5 uM incubated for 48 hrs by Annexin V-FITC/propidium iodide staining based flow cytometry (reference value: 3.36%). It counts as functional.
The subject of data set [10] is A549. The data set is described as follows: Cytotoxicity against human A549 cells assessed as inhibition of cell proliferation at 0.125 to 2 uM by MTT assay. It counts as functional, cell-based. The settings on record: dose 0.125-2 µM, time 24-72 hrs, TDE = time-dependent effect.

Take `CC1=C(O)C(=O)C=C2C1=CC=C1[C@@]2(C)CC[C@@]2(C)[C@@H]3C[C@](C)(C(=O)N4CCN(C(=O)CN5C(=O)S/C(=C\C6CCCC6)C5=O)CC4)CC[C@]3(C)CC[C@]12C`: the IC50 (usually the concentration needed to halve the response being measured) at 96 h in data set [1] was determined as 3.21 µM. In the data set on A549 [2], this compound registered an IC50 of 0.17 µM. For the same compound, in data set [3], the selectivity ratio is 18.9.

Consider `CC1=C(O)C(=O)C=C2C1=CC=C1[C@@]2(C)CC[C@@]2(C)[C@@H]3C[C@](C)(C(=O)N4CCN(C(=O)CN5C(=O)S/C(=C\c6cccc(C)c6)C5=O)CC4)CC[C@]3(C)CC[C@]12C`, for which, in data set [1], the IC50 at 96 h turned out to be 3.19 µM. This compound also gave an IC50 with A549 [2] of 0.53 µM. Moreover, in data set [3], the selectivity ratio stood at 6.01.

As to `CC1=C(O)C(=O)C=C2C1=CC=C1[C@@]2(C)CC[C@@]2(C)[C@@H]3C[C@](C)(C(=O)N4CCN(C(=O)CN5C(=O)S/C(=C\c6ccc(Cl)cc6)C5=O)CC4)CC[C@]3(C)CC[C@]12C`, in data set [1], the IC50 at 96 h came out at 3.08 µM. In the data set with A549 [2], the IC50 was determined as 0.42 µM. Further, the selectivity ratio in data set [3] came out at 7.33.

As to `CC1=C(O)C(=O)C=C2C1=CC=C1[C@@]2(C)CC[C@@]2(C)[C@@H]3C[C@](C)(C(=O)N4CCN(C(=O)CN5C(=O)S/C(=C\c6cccc(Br)c6)C5=O)CC4)CC[C@]3(C)CC[C@]12C`, the IC50 at 96 h in data set [1] was determined as 4.02 µM. Moreover, the IC50 in the data set with A549 [2] worked out at 1.06 µM. Besides, the selectivity ratio in data set [3] was determined as 3.79.

Consider `CC1=C(O)C(=O)C=C2C1=CC=C1[C@@]2(C)CC[C@@]2(C)[C@@H]3C[C@](C)(C(=O)N4CCN(C(=O)CN5C(=O)S/C(=C\c6ccco6)C5=O)CC4)CC[C@]3(C)CC[C@]12C`, for which the IC50 at 96 h in data set [1] was 1.05 µM. This compound also had a 50% inhibitory concentration (IC50) in the data set on A549 [2] of 0.17 µM. Further, the selectivity ratio in data set [3] came to 6.18.

For `CC1=C(O)C(=O)C=C2C1=CC=C1[C@@]2(C)CC[C@@]2(C)[C@@H]3C[C@](C)(C(=O)N4CCN(C(=O)CN5C(=O)CSC5=O)CC4)CC[C@]3(C)CC[C@]12C`, the IC50 at 96 h in [1] is 5.7 µM. In the data set on A549 [2], this compound yielded an IC50 of 1.55 µM. Moreover, the selectivity ratio in data set [3] was found to be 3.68.

Turning to `COc1cccc(/C=C2\SC(=O)N(CC(=O)N3CCN(C(=O)[C@]4(C)CC[C@]5(C)CC[C@]6(C)C7=CC=C8C(=CC(=O)C(O)=C8C)[C@]7(C)CC[C@@]6(C)[C@@H]5C4)CC3)C2=O)c1`, the IC50 at 96 h in data set [1] turned out to be 2.38 µM. In the data set with A549 [2], this compound registered an IC50 of 0.36 µM. Moreover, the selectivity ratio in data set [3] amounted to 6.61.

Turning to `CC1=C(O)C(=O)C=C2C1=CC=C1[C@@]2(C)CC[C@@]2(C)[C@@H]3C[C@](C)(C(=O)N4CCN(C(=O)CN5C(=O)S/C(=C\c6cccc(F)c6)C5=O)CC4)CC[C@]3(C)CC[C@]12C`, the IC50 at 96 h in [1] came out at 3.18 µM. The same compound registered an IC50 with A549 [2] of 0.4 µM. Also, the selectivity ratio in data set [3] stood at 7.95.

As to `CC1=C(O)C(=O)C=C2C1=CC=C1[C@@]2(C)CC[C@@]2(C)[C@@H]3C[C@](C)(C(=O)N4CCN(C(=O)CN5C(=O)S/C(=C\c6cccc(Cl)c6)C5=O)CC4)CC[C@]3(C)CC[C@]12C`, the half-inhibitory concentration (IC50) at 96 h in [1] was 3.16 µM. For the same compound, the IC50 with A549 [2] stood at 0.48 µM. Moreover, the selectivity ratio in data set [3] came out at 6.58.

Regarding `CC1=C(O)C(=O)C=C2C1=CC=C1[C@@]2(C)CC[C@@]2(C)[C@@H]3C[C@](C)(C(=O)N4CCN(C(=O)CN5C(=O)S/C(=C\c6ccc7c(c6)OCO7)C5=O)CC4)CC[C@]3(C)CC[C@]12C`, in [1], the IC50 at 96 h came out at 4 µM. In the data set with A549 [2], this compound returned a half-inhibitory concentration (IC50) of 0.35 µM. In data set [3], the selectivity ratio came to 9.43.

`CCCC/C=C1\SC(=O)N(CC(=O)N2CCN(C(=O)[C@]3(C)CC[C@]4(C)CC[C@]5(C)C6=CC=C7C(=CC(=O)C(O)=C7C)[C@]6(C)CC[C@@]5(C)[C@@H]4C3)CC2)C1=O`: the IC50 at 96 h in [1] turned out to be 3.44 µM. The compound also displayed an IC50 in the data set on A549 [2] of 0.32 µM. In addition, the selectivity ratio in data set [3] was determined as 10.8.

In the case of `CC1=C(O)C(=O)C=C2C1=CC=C1[C@@]2(C)CC[C@@]2(C)[C@@H]3C[C@](C)(C(=O)N4CCN(C(=O)CN5C(=O)S/C(=C\c6ccccc6)C5=O)CC4)CC[C@]3(C)CC[C@]12C`, the IC50 at 96 h in [1] was determined as 2.51 µM. This compound also came in with a concentration for half-maximal inhibition (IC50) in the data set with A549 [2] of 0.4 µM. Moreover, in data set [3], the selectivity ratio is 6.28.

Consider `CC1=C(O)C(=O)C=C2C1=CC=C1[C@@]2(C)CC[C@@]2(C)[C@@H]3C[C@](C)(C(=O)N4CCN(C(=O)CN5C(=O)S/C(=C\C(C)C)C5=O)CC4)CC[C@]3(C)CC[C@]12C`, for which the IC50 at 96 h in data set [1] worked out at 2.93 µM. Also, the “Ratio IC50” value with A549 [4] came out at 12.2. Moreover, the IC50 with A549 [2] came to 0.09 µM. Also, the selectivity ratio in data set [3] was found to be 32.6.

For the compound `CC1=C(O)C(=O)C=C2C1=CC=C1[C@@]2(C)CC[C@@]2(C)[C@@H]3C[C@](C)(C(=O)N4CCN(C(=O)CN5C(=O)S/C(=C\c6ccc(Br)cc6)C5=O)CC4)CC[C@]3(C)CC[C@]12C`, in data set [1], the IC50 at 96 h worked out at 3.71 µM. Also, the IC50 in the data set with A549 [2] amounted to 0.51 µM. Besides, the selectivity ratio in data set [3] stood at 7.27.

In the case of `CC1=C(O)C(=O)C=C2C1=CC=C1[C@@]2(C)CC[C@@]2(C)[C@@H]3C[C@](C)(C(=O)N4CCN(C(=O)CN5C(=O)S/C(=C\c6ccc(N(C)C)cc6)C5=O)CC4)CC[C@]3(C)CC[C@]12C`, the IC50 at 96 h in data set [1] was 4.77 µM. In the data set with A549 [2], this compound yielded a half-inhibitory concentration (IC50) of 0.94 µM. Besides, the selectivity ratio in data set [3] was 5.07.

`CC1=C(O)C(=O)C=C2C1=CC=C1[C@@]2(C)CC[C@@]2(C)[C@@H]3C[C@](C)(C(=O)O)CC[C@]3(C)CC[C@]12C` [CELASTROL]: the IC50 at 96 h in data set [1] is 4.4 µM. Further, in the data set with A549 [5], the viability at 0.5 µM worked out at 87.3%. In addition, the Activity is 6.97% with A549 [6]; “Dde” in the data set on A549 [7]; 1.12% in the data set on A549 [8]; 4.6% in the data set with A549 [9]; “Tde” in the data set with A549 [10]. In the data set with A549 [2], the half-inhibitory concentration (IC50) was determined as 1.1 µM. Besides, in data set [3], the selectivity ratio worked out at 4.

Take `COc1ccc(/C=C2\SC(=O)N(CC(=O)N3CCN(C(=O)[C@]4(C)CC[C@]5(C)CC[C@]6(C)C7=CC=C8C(=CC(=O)C(O)=C8C)[C@]7(C)CC[C@@]6(C)[C@@H]5C4)CC3)C2=O)cc1`: in [1], the IC50 at 96 h worked out at 2.04 µM. Moreover, the IC50 in the data set on A549 [2] was determined as 0.32 µM. Further, in [3], the selectivity ratio is 6.38.

Take `CC1=C(O)C(=O)C=C2C1=CC=C1[C@@]2(C)CC[C@@]2(C)[C@@H]3C[C@](C)(C(=O)N4CCN(C(=O)CN5C(=O)S/C(=C\C6CCCCC6)C5=O)CC4)CC[C@]3(C)CC[C@]12C`: the half-maximal inhibitory concentration (IC50) at 96 h in [1] turned out to be 3.61 µM. The compound further came in with an IC50 in the data set on A549 [2] of 0.55 µM. Also, the selectivity ratio in [3] worked out at 6.56.

Take `CC1=C(O)C(=O)C=C2C1=CC=C1[C@@]2(C)CC[C@@]2(C)[C@@H]3C[C@](C)(C(=O)N4CCN(C(=O)CN5C(=O)S/C(=C\c6ccc(F)cc6)C5=O)CC4)CC[C@]3(C)CC[C@]12C`: the IC50 at 96 h in [1] was found to be 2.75 µM. Half-maximal inhibition with A549 [2] (IC50) was put at 0.37 µM. Further, the selectivity ratio in data set [3] came to 7.43.

Consider `CC1=C(O)C(=O)C=C2C1=CC=C1[C@@]2(C)CC[C@@]2(C)[C@@H]3C[C@](C)(C(=O)N4CCN(C(=O)CN5C(=O)S/C(=C\c6ccc(C)cc6)C5=O)CC4)CC[C@]3(C)CC[C@]12C`, for which the IC50 at 96 h in data set [1] was 2.5 µM. The same compound came in with an IC50 with A549 [2] of 0.51 µM. Also, the selectivity ratio in [3] is 4.91.

Take `CC1=C(O)C(=O)C=C2C1=CC=C1[C@@]2(C)CC[C@@]2(C)[C@@H]3C[C@](C)(C(=O)N4CCN(C(=O)CN5C(=O)S/C(=C\c6cccs6)C5=O)CC4)CC[C@]3(C)CC[C@]12C`: the IC50 at 96 h in [1] was 1.27 µM. The compound also showed an IC50 with A549 [2] of 0.36 µM. In [3], the selectivity ratio was 3.53.
